Values after ≈ are worked out from the molar mass of the structure shown. Where a name gives a salt, the structure may show the parent alone. Read-outs that look alike come from different tables or passages of the source.
Columns and labels:
[1] = tested on: Escherichia coli A13; experiment: Minimum inhibitory concentration, agar plate dilution method; type: cell-based
Procedure: (§1) The antibacterial activity against various bacteria was measured by the agar plate dilution method (inoculum size 10^6 cells/ml), and the results are shown in the following Table 1.

[2] = tested on: Escherichia coli NIJH JC-2; experiment: as above; type: cell-based
Procedure: as §1

[3] = tested on: Klebsiella pneumoniae T-25; experiment: as above; type: cell-based
Procedure: as §1

[4] = tested on: Morganella morganii IID 602; experiment: as above; type: cell-based
Procedure: as §1

[5] = tested on: Staphylococcus aureus 209P-JC; experiment: as above; type: cell-based; settings: read-out: Minimum Inhibitory Concentration
Procedure: as §1

[6] = tested on: Staphylococcus aureus K-1; experiment: as above; type: cell-based
Procedure: as §1

[7] = in vivo; settings: rat, blood, 50 mg/kg in 5% gum arabic, male wister rats, bioassay
Procedure: Three male wister rats (7 weeks old) for each group were administered orally with the test compounds, and the change of the concentration of the compound in blood was measured.
Dosage of the test compound:
50 mg/kg (suspended in 5% gum arabic)
Quantitative method: Bioasssay
(test bacterium: Escherichia coil SC507)

[8] = Escherichia coli, A13, read-out: Minimum Inhibitory Concentration
[9] = Escherichia coli, NIJHJC2, read-out: Minimum Inhibitory Concentration
[10] = Klebsiella pneumoniae, T25, read-out: Minimum Inhibitory Concentration
[11] = Morganella morganii, IID602, read-out: Minimum Inhibitory Concentration
[12] = Staphylococcus aureus, K1, read-out: Minimum Inhibitory Concentration
[13] = Escherichia coli A13, inoculum size 10^6 cells/ml, read-out: Minimum Inhibitory Concentration
[14] = NIJHJC2, Escherichia coli NIJH JC-2, inoculum size 10^6 cells/ml, read-out: Minimum Inhibitory Concentration
[15] = T25, Klebsiella pneumoniae T-25, inoculum size 10^6 cells/ml, read-out: Minimum Inhibitory Concentration
[16] = IID602, Morganella morganii IID 602, inoculum size 10^6 cells/ml, read-out: Minimum Inhibitory Concentration
[17] = Staphylococcus aureus 209P-JC, inoculum size 10^6 cells/ml

Compound	MIC [1, 8] [mg/L]	MIC [2, 9] [mg/L]	MIC [3, 10] [mg/L]	MIC [4, 11] [mg/L]	MIC ([5]; Staphylococcus aureus, 209P) [mg/L]	MIC [6, 12] [mg/L]	concentration at 4 h ([7]; Four Hours after oral administration) [µg/mL]	concentration at 1 h ([7]; One Hour after oral administration) [µg/mL]	concentration at 2 h ([7]; Two Hours after oral administration) [µg/mL]	MIC [1, 13] [mg/L]	MIC [2, 14] [mg/L]	MIC [3, 15] [mg/L]	MIC [4, 16] [mg/L]	MIC [5, 17] [mg/L]	MIC ([6]; K1, Staphylococcus aureus K-1, inoculum size 10^6 cells/ml, read-out: Minimum Inhibitory Concentration) [mg/L]
COC(=O)/C=C\SC1=C(C(=O)[O-])N2C(=O)[C@@H](NC(=O)/C(=N\O)c3csc(N)n3)[C@H]2SC1.[Na+]	6.25	≤ 0.025	0.2	0.05	0.2	3.13	16.9	11	14.2						
CC1=C(C(=O)O)N2C(=O)[C@@H](NC(=O)[C@H](N)c3ccccc3)[C@H]2SC1 [Test compound B, Cephalexin]	> 100	3.13 (≈ 9.01 µM)	100 (≈ 288 µM)	> 100	0.78 (≈ 2.25 µM)	> 100									
C=CC1=C(C(=O)O)N2C(=O)[C@@H](NC(=O)/C(=N\OCC(=O)O)c3csc(N)n3)[C@H]2SC1 [Test compound C, Cefixime sodium salt]										> 100	0.05	12.5	0.39	12.5	> 100
COC(=O)/C=C\SC1=C(C(=O)O)N2C(=O)[C@@H](NC(=O)/C(=N\OCC(=O)O)c3csc(N)n3)[C@H]2SC1 [Test compound D]										> 100	0.05 (≈ 0.092 µM)	0.39 (≈ 0.717 µM)	0.25 (≈ 0.46 µM)	6.25 (≈ 11.5 µM)	

— patent US4937332A, “Cephalosporin derivatives” (Taisho Pharmaceutical Co., Ltd., priority 1987, dated 1990)
